These results are taken from patent US10968214B2, “KRas G12C inhibitors” (Eli Lilly and Company, priority 2018, dated 2021).

Read-outs that look alike come from different tables or passages of the source.

One test concerns the target KRas G12C (Homo sapiens, UniProt P01116, G12C). Put plainly: KRas G12C Probe Occupancy TR-FRET Assay. It counts as binding. Conditions: 60 min incubation of inhibitor with KRas G12C; read-out: TR-FRET 60 min. Here is the method: Inhibitors are tested in dose response format from 10 mM stocks in 100% DMSO. The Labycyte Echo® 555 is used to dilute and transfer 100 nL per well containing a 10 point, 2.8-fold serial dilution to an assay plate. […] The signal ratio (em at 665/em at 615) is converted to percent inhibition using the following equation: % Inhibition=100−[(Test Compound Signal−Median Minimum Signal)/(Median Maximum Signal−Median Minimum Signal)×100].

In test [1] the test system is phosphorylation of p-ERK1/2 in H358 cells. Nature of the test: H358 Cellular Phospho-ERK AlphaLISA. It counts as cell-based, Human. Conditions: read-out: pERK. Here is the method: This assay is used to measure the ability of test compounds to inhibit the phosphorylation of p-ERK1/2, a downstream effector of KRas in Human lung cancer cells H358 (ATCC CRL-5807). Briefly, the AlphaLISA® SureFire® Ultra™ p-ERK 1/2 (Thr202/Tyr204) assay is a sandwich immunoassay for quantitative detection of phospho-ERK 1/2 (phosphorylated on Thr202/Tyr204 in ERK1, or Thr185/Tyr187 in ERK2) in cellular lysates using Alpha Technology (Perkin Elmer Cat #ALSU-PERK-A50K).
H358 cells are plated at 40K cells per well in 100 μL media (RPMI 1640, GIBCO Cat #22400-071) containing 10% FBS (GIBCO Cat #: 10082-147) in a 96 well plate (Costar #3596) and are incubated overnight in humid trays at 37° C., 5% CO2. The next morning, 10 μL of serially-diluted (3-fold) test compounds (50 μM top concentration) and 10 uL of controls (Maximum signal wells: 5% DMSO and Minimum signal wells: 2 μM of N-(3-{3-cyclopropyl-5-[(2-fluoro-4-iodophenyl)amino]-6,8-dimethyl-2,4,7-trioxo-3,4,6,7-tetrahydropyrido[4,3-D]pyrimidin-1(2H)-yl}phenyl)acetamide (trametinib, as a positive control) are added to the cell plate and incubated for 2 hr in humid trays at 37° C./5% CO2. Lysis Buffer is prepared at RT containing a protease and phosphatase inhibitor cocktail. Culture medium is removed by inverting and shaking the cell plate in the sink and then blotting onto a paper towel. Lysis buffer is added to the cell plate (50 μL per well) and the plate is incubated at RT for 10 min on a shaker. For p-ERK detection, acceptor beads are diluted into a suspension mixture with buffer. Using a Starlett liquid handler, 5 μL of acceptor beads and 2 μL of cell lysate are transferred as a single-step in-tip dilution to a 384 well assay plate. The assay plate is sealed with foil and is incubated at RT for 2 hrs. Donor beads are diluted into a suspension mixture with buffer. Using the Starlet, 5 μL of donor beads are added to the assay plate that is then sealed, wrapped with foil. The plate is incubated at RT for 2 hrs in the dark. The assay plate is then read on an EnVision™ Plate Reader (Perkin Elmer) using a luminescence program.
The signal is converted to percent inhibition using the following equation: % Inhibition=100−[(Test Compound Signal−Median Minimum Signal)/(Median Maximum Signal−Median Min Signal)×100]. The Maximum signal is a control well without inhibitor.
A general note: In Alpha technology, singlet oxygen from a donor bead excites a nearby acceptor bead.

Test [2] addresses T1, constitutive RAS GTPAse activity in H358 cells (Homo sapiens, UniProt P01116, G12C).
T1 construct: host or cells: H358 human lung cancer cells
Put plainly: H358 Cellular Active RAS GTPase ELISA. Conditions: 2 hr, read-out: RAS-GTP. Format: cell-based. From the text: This assay is used to measure the ability of test compounds to inhibit constitutive RAS GTPAse activity in human lung cancer cells H358 (ATCC CRL-5807). The RAS GTPase ELISA kit (Active Motif Cat #52097) contains a 96-well plate pre-coated with glutathione in order to capture a kit-supplied GST-Raf-RBD protein. Activated RAS (GTP-bound) in cell extracts specifically bind to the Raf-RBD. Bound RAS is detected with a primary antibody that recognizes human KRas. A secondary antibody conjugated with HRP recognizes the primary antibody and a development solution provides a chemiluminescent readout.
H358 cells are plated at 80,000 cells/well in 90 μL serum free media (RPMI 1640, GIBCO) and incubated overnight at 37° C./5% CO2. The next morning, 10 μL of serially-diluted (3-fold) test compounds (500 μM top concentration) and 10 μL of controls (Maximum signal wells: 5% DMSO and Minimum signal wells: 500 μM LSN3429410 as an inhibitor) are added to the cell plate and incubated for 2 hr at 37° C./5% CO2. Complete Lysis/Binding Buffer is prepared containing Protease Inhibitor cocktail and GST-Raf-RBD and stored on ice. One hour before cell plate incubation is completed, 50 μL of GST-Raf-RBD is diluted in lysis/binding buffer, and buffer is added to the ELISA assay plate and which is incubated for 1 hour at 4° C. with gently rocking. After 2 hr, the cells are washed with 100 μL ice-cold PBS and lysed with 100 μL lysis/binding buffer. The cell plate is shaken for 10 min at RT. The cell plate is then centrifuged at 1500 rpm for 10 min at RT. During this time, 1× Wash Buffer is prepared at RT and then is used to wash (3×100 μL) the GST-Raf-RBD coated assay plate. After washing, 50 μL of cell lysate is added to the GST-Raf-RBD coated assay plate and incubated for 1 hour at RT with gentle shaking. During this incubation period, 1× Antibody Binding Buffer is prepared and brought to RT. The assay plate is washed 3×100 μL with 1× Wash Buffer and then 50 μL of Primary Antibody (diluted 1:500 in 1× Antibody Binding buffer) is added. The plate is incubated for 1 hour at RT. The assay plate is washed 3×100 μl with 1× Wash Buffer and then 50 μL of Secondary Antibody (diluted 1:5000 in 1× Antibody Binding buffer) is added and incubated for 1 hour at RT. The assay plate is washed 4×100 μL with 1× Wash buffer and then 50 μL of chemiluminescent working solution is added at RT. The assay plate is then read on an EnVision™ Plate Reader (Perkin Elmer) using a luminescence program.
The signal is converted to percent inhibition using the following equation: % Inhibition=100−[(Test Compound Signal−Median Minimum Signal)/(Median Maximum Signal−Median Minimum Signal)×100]. The Maximum signal is a control well without inhibitor.

The subject of a further test is EL3187 (PDX). Nature of the test: Anti-tumor growth activity, EL3187 lung PDX. Format: in vivo. Conditions: EL3187 Lung PDX; Afatinib 25 mg/kg QDx28.

Chain of KRas G12C (P01116 1-188 isoform P01116-2 G12C): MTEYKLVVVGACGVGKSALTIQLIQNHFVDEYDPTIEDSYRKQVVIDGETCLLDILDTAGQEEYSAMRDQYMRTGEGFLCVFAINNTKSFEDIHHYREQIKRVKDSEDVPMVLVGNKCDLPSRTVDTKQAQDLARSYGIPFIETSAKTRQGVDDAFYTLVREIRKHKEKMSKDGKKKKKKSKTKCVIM
T1 sequence (P01116 1-188 isoform P01116-2 G12C): as above

On to `C=CC(=O)N1CCN(c2ncnc3cc(-c4ccc5oc(N)nc5c4)c(Cl)cc23)CC1` [reference compound], for which the IC50 at KRas G12C was 82200 nM; in test [1] (Homo sapiens, NCI-H358, 2 h), above 5000 nM; in test [2], above 50000 nM.

In the case of `C=CC(=O)N1CCN(c2ncnc3c(F)c(-c4c(O)cccc4F)c(Cl)cc23)CC1` [reference compound], the IC50 was found to be 1600 nM in test [1] (Homo sapiens, NCI-H358, 2 h) and 3780 nM in test [2].

For `C=CC(=O)N1CCN(c2ncnc3c(Cl)c(-c4ccc(F)c5sc(N)nc45)c(Cl)cc23)CC1` [Example 2, 1-{4-[7-(2-Amino-7-fluoro-1,3-benzothiazol-4-yl)-6,8-dichloroquinazolin-4-yl]piperazin-1-yl}prop-2-en-1-one], the IC50 at KRas G12C was determined as 47.6 nM; in test [1] (Homo sapiens, NCI-H358, 2 h), 19.4 nM; in test [2], 148 nM.

For the molecule `C=CC(=O)N1CCN(c2ncnc3c(F)c(-c4c(F)cc(F)c5sc(N)nc45)c(Cl)cc23)CC1` (single isomer, unassigned) [Example 6a, 1-{4-[7-(2-Amino-5,7-difluoro-1,3-benzothiazol-4-yl)-6-chloro-8-fluoroquinazolin-4-yl]piperazin-1-yl}prop-2-en-1-one], the values for the IC50 (at KRas G12C; in test [1] (2 hr); in test [2]) were below 18.9 nM, 3.94 nM and 11.7 nM, respectively.

On to `C=CC(=O)N1CCN(c2ncnc3c(F)c(-c4cccc5sc(N)nc45)c(Cl)cc23)CC1` [Example 5, 1-{4-[7-(2-Amino-1,3-benzothiazol-4-yl)-6-chloro-8-fluoroquinazolin-4-yl]piperazin-1-yl}prop-2-en-1-one], for which the IC50 came out at 27.8 nM at KRas G12C; 9.73 nM in test [1] (Homo sapiens, NCI-H358, 2 h); 104 nM in test [2].

Regarding `C=CC(=O)N1CCN(c2ncnc3cc(-c4ccc(F)c5sc(N)nc45)c(Cl)cc23)CC1` [Example 4, 1-{4-[7-(2-Amino-7-fluoro-1,3-benzothiazol-4-yl)-6-chloroquinazolin-4-yl]piperazin-1-yl}prop-2-en-1-one], the IC50 is 25 nM at KRas G12C; 27.1 nM in test [1] (Homo sapiens, NCI-H358, 2 h); 234 nM in test [2].

On to `C=CC(=O)N1CCN(c2ncnc3c(F)c(-c4cc(F)c(F)c5sc(N)nc45)c(Cl)cc23)CC1` [Example 3, 1-{4-[7-(2-Amino-6,7-difluoro-1,3-benzothiazol-4-yl)-6-chloro-8-fluoroquinazolin-4-yl]piperazin-1-yl}prop-2-en-1-one], for which the IC50 at KRas G12C was 20.9 nM; in test [1] (Homo sapiens, NCI-H358, 2 h) it was 15.3 nM; in test [2], 166 nM.

Turning to `CN(C)C/C=C/C(=O)Nc1cc2c(Nc3ccc(F)c(Cl)c3)ncnc2cc1O[C@H]1CCOC1` [Afatinib, afatinib, reference compound], the “In Vivo Anti-Tumor Activities” value in the test with EL3187 (PDX) came out at 17.1.

Regarding `C=CC(=O)N1CCN(c2ncnc3c(F)c(-c4cc(O)cc5ccccc45)c(Cl)cc23)CC1` [reference compound], the IC50 was 45.2 nM at KRas G12C; 204 nM in test [1] (Homo sapiens, NCI-H358, 2 h); 392 nM in test [2].

`C=CC(=O)N1CCN(c2ncnc3c(F)c(-c4c(F)cc(F)c5sc(N)nc45)c(Cl)cc23)CC1` (single isomer, unassigned) [Example 6b, 1-{4-[7-(2-Amino-5,7-difluoro-1,3-benzothiazol-4-yl)-6-chloro-8-fluoroquinazolin-4-yl]piperazin-1-yl}prop-2-en-1-one]: the IC50 on KRas G12C is 449 nM; in test [1] (2 hr), 256 nM; in test [2] it was 743 nM.
